Data: patent US10251885B2, “Azole antifungal compositions” (ALLERGAN PHARMACEUTICALS INTERNATIONAL LIMITED, priority 2009, dated 2019)
In brackets after ≈: the same amount, converted by molar mass.

Assays:
All Dermatophytes [1] = experiment: Microdilution assay, minimum inhibitory concentration (MIC); assay type: cell-based; conditions: for MIC50 / MIC90 / MIC Range: All Dermatophytes, n = 15 strains
Method: (§1) Multiple strains of Trichophyton rubrum, Trichophyton mentagrophytes and Epidermophyton flucossum were obtained from the culture collection facility at the Center for Medical Mycology (University Hospitals of Cleveland/Case Western Reserve University, Cleveland, Ohio). The minimum inhibitory concentration (MICs) for albaconazole, ciclopirox and terbinafine against each dermatophyte strain was determined according to the method approved by the CLSI Antifungal Subcommittee as a reference method for determining dermatophyte susceptibilities (Ghannoum et al., J. Clin. Microbiol. 42: 2977-2979, 2004). […] Microbiol. Infect. Dis. 45:203-206, 2003.
(§2) Tables 1 and 2 describe the minimum inhibitory concentrations (in ug/mL) and the minimum fungicidal concentrations (in ug/mL), respectively, for the active agents against the dermatophyte strains.

All Dermatophytes [2] = experiment: Microdilution assay, minimum fungicidal concentration (MFC); assay type: cell-based; conditions: for MFC50 / MFC90 / MFC Range: All Dermatophytes, n = 15 strains
Method: as §1, §2

T. mentagrophytes [3] = experiment: as above; assay type: cell-based, Trichophyton mentagrophytes; conditions: n = 5 strains
Method: as §1, §2

T. rubrum [4] = experiment: Microdilution assay, minimum inhibitory concentration (MIC); assay type: cell-based, Trichophyton rubrum; conditions: n = 2 strains; for MIC50 / MIC90: Trichophyton rubrum
Method: as §1, §2

[5] = tested on: T. rubrum elevated terbinafine (MIC); experiment: as above; assay type: cell-based, Trichophyton rubrum; conditions: for MIC Range / MIC50 / MIC90: T. rubrum elevated terbinafine (MIC), n = 3 strains; for MIC50 / MIC90: Trichophyton rubrum
Method: as §1, §2

T. mentagrophytes [6] = experiment: as above; assay type: cell-based, Trichophyton mentagrophytes; conditions: n = 5 strains; for MIC50 / MIC90: Trichophyton mentagrophytes
Method: as §1, §2

E. flucossum [7] = experiment: Microdilution assay, minimum fungicidal concentration (MFC); assay type: cell-based, Epidermophyton flucossum; conditions: n = 5 strains
Method: as §1, §2

T. rubrum [8] = experiment: as above; assay type: cell-based, Trichophyton rubrum; conditions: n = 2 strains
Method: as §1, §2

[9] = tested on: T. rubrum elevated terbinafine (MIC); experiment: as above; assay type: cell-based, Trichophyton rubrum; conditions: n = 3 strains
Method: as §1, §2

E. flucossum [10] = experiment: Microdilution assay, minimum inhibitory concentration (MIC); assay type: cell-based, Epidermophyton flucossum; conditions: n = 5 strains; for MIC50 / MIC90: Epidermophyton
Method: as §1, §2

| SMILES | MIC50 (All Dermatophytes [1]) | MIC90 (All Dermatophytes [1]) | MFC50 (All Dermatophytes [2]) | MFC90 (All Dermatophytes [2]) | MFC50 (T. mentagrophytes [3]) | MFC90 (T. mentagrophytes [3]) | MIC50 (T. rubrum [4]) | MIC90 (T. rubrum [4]) | MIC Range (T. rubrum [4]) | MIC Range [5] | MIC50 [5] | MIC90 [5] | MIC50 (T. mentagrophytes [6]) | MIC90 (T. mentagrophytes [6]) | MIC Range (T. mentagrophytes [6]) | MFC50 (E. flucossum [7]) | MFC90 (E. flucossum [7]) | MFC50 (T. rubrum [8]) | MFC90 (T. rubrum [8]) | MFC Range (T. rubrum [8]) | also measured |
| --- | --- | --- | --- | --- | --- | --- | --- | --- | --- | --- | --- | --- | --- | --- | --- | --- | --- | --- | --- | --- | --- |
| CN(C/C=C/C#CC(C)(C)C)Cc1cccc2ccccc12 [Terbinafine, terbinafine] | 0.002 µg/mL (≈ 0.00686 µM) | 8 µg/mL (≈ 27.5 µM) | 0.015 µg/mL (≈ 0.0515 µM) | 32 µg/mL (≈ 110 µM) | 0.015 µg/mL (≈ 0.0515 µM) | 0.03 µg/mL (≈ 0.103 µM) | 0.002 µg/mL (≈ 0.00686 µM) | 0.002 µg/mL (≈ 0.00686 µM) | 0.002 µg/mL (≈ 0.00686 µM) | 8 to 32 µg/mL | 8 µg/mL (≈ 27.5 µM) | 32 µg/mL (≈ 110 µM) | 0.002 µg/mL (≈ 0.00686 µM) | 0.004 µg/mL (≈ 0.0137 µM) | 0.002 to 0.004 µg/mL | 0.03 µg/mL (≈ 0.103 µM) | 0.03 µg/mL (≈ 0.103 µM) | 0.008 µg/mL (≈ 0.0275 µM) | 0.008 µg/mL (≈ 0.0275 µM) | 0.008 µg/mL (≈ 0.0275 µM) | MIC Range (All Dermatophytes [1]): 2 to 32000 ng/mL; MFC Range (All Dermatophytes [2]): 0.008 µg/mL (≈ 0.0275 µM); MFC Range (T. mentagrophytes [3]): 0.015 to 0.03 µg/mL; MFC50 [9]: 32 µg/mL (≈ 110 µM); MFC90 [9]: >64 µg/mL; MIC50 (E. flucossum [10]): 0.002 µg/mL (≈ 0.00686 µM); MIC90 (E. flucossum [10]): 0.008 µg/mL (≈ 0.0275 µM); MIC Range (E. flucossum [10]): 2 to 8 ng/mL |
| Cc1cc(C2CCCCC2)n(O)c(=O)c1 [Ciclopirox, ciclopirox] | 0.12 µg/mL (≈ 0.579 µM) | 0.25 µg/mL (≈ 1.21 µM) | 16 µg/mL (≈ 77.2 µM) | >32 µg/mL | >32 µg/mL | >32 µg/mL | 0.12 µg/mL (≈ 0.579 µM) | 0.12 µg/mL (≈ 0.579 µM) | 0.12 µg/mL (≈ 0.579 µM) | 0.12 µg/mL (≈ 0.579 µM) | 0.12 µg/mL (≈ 0.579 µM) | 0.12 µg/mL (≈ 0.579 µM) | 0.25 µg/mL (≈ 1.21 µM) | 0.25 µg/mL (≈ 1.21 µM) | 0.12 to 0.25 µg/mL | 4 µg/mL (≈ 19.3 µM) | >32 µg/mL | 16 µg/mL (≈ 77.2 µM) | 32 µg/mL (≈ 154 µM) | 16 to 32 µg/mL | MFC50 [9]: 16 µg/mL (≈ 77.2 µM); MFC90 [9]: >32 µg/mL; MIC50 (E. flucossum [10]): 0.12 µg/mL (≈ 0.579 µM); MIC90 (E. flucossum [10]): 0.12 µg/mL (≈ 0.579 µM); MIC Range (E. flucossum [10]): 120 ng/mL (≈ 0.579 µM) |
| C[C@@H](n1cnc2cc(Cl)ccc2c1=O)[C@](O)(Cn1cncn1)c1ccc(F)cc1F [Albaconazole, (1R,2R)-7-chloro-3-[2-(2,4-difluorophenyl)-2-hydroxy-1-methyl-3-(1H-1,2,4-triazol-1yl)propyl]quinazolin-4(3H)-one] | 0.06 µg/mL (≈ 0.139 µM) | 0.25 µg/mL (≈ 0.579 µM) | 0.5 µg/mL (≈ 1.16 µM) | 8 µg/mL (≈ 18.5 µM) | 1 µg/mL (≈ 2.32 µM) | 8 µg/mL (≈ 18.5 µM) | 0.06 µg/mL (≈ 0.139 µM) | 0.06 µg/mL (≈ 0.139 µM) | 0.06 µg/mL (≈ 0.139 µM) | 0.015 to 0.25 µg/mL | 0.06 µg/mL (≈ 0.139 µM) | 0.25 µg/mL (≈ 0.579 µM) | 0.12 µg/mL (≈ 0.278 µM) | 0.5 µg/mL (≈ 1.16 µM) | 0.12 to 0.5 µg/mL | 0.25 µg/mL (≈ 0.579 µM) | 8 µg/mL (≈ 18.5 µM) | 0.5 µg/mL (≈ 1.16 µM) | 8 µg/mL (≈ 18.5 µM) | 0.5 to 8 µg/mL | MIC Range (All Dermatophytes [1]): 8 to 500 ng/mL; MICs overall, compared with ciclopirox and terbinafine (All Dermatophytes [1]; overall, in words): lower than those for ciclopirox and similar to those for terbinafine; MFC Range (All Dermatophytes [2]): 0.06 to 8 µg/mL; MFCs overall, compared with ciclopirox and terbinafine (All Dermatophytes [2]; overall, in words): lower than those for ciclopirox and similar to those for terbinafine; MFC Range (T. mentagrophytes [3]): 0.5 to 8 µg/mL; effectiveness against terbinafine-resistant Trichophyton rubrum strains ([5]; compared with terbinafine, in words): more effective; MFC Range (E. flucossum [7]): 0.06 to 8 µg/mL; MFC50 [9]: 0.25 µg/mL (≈ 0.579 µM); MFC90 [9]: 1 µg/mL (≈ 2.32 µM); MFC Range [9]: 0.06 to 1 µg/mL; MIC50 (E. flucossum [10]): 0.015 µg/mL (≈ 0.0347 µM); MIC90 (E. flucossum [10]): 0.015 µg/mL (≈ 0.0347 µM); MIC Range (E. flucossum [10]): 8 to 15 ng/mL |
